# Activity calls are given as the source filed them. The rule behind the calls is not given here.
# Assays:
# [1] = Inhibition of PKC at 0.025 to 0.05 mM after 90 mins by ELISA
# [2] = Inhibition of PKC at 0.1 mM after 90 mins by ELISA
# [3] = Inhibition of PKC at 0.2 mM after 90 mins by ELISA
# [4] = Inhibition of PKC at 0.025 mM after 90 mins by ELISA
# [5] = tested on: Rattus norvegicus; assay: Toxicity in rat at 4 mg/kg, po after 28 days; assay type: organism-based; parameters: dose 4 mg/kg, route oral; conditions: in vivo, 672 h
# [6] = Inhibition of PKC after 90 mins by ELISA
# [7] = tested on: Mus musculus; assay: Toxicity in mouse at 8 mg/kg, po after 28 days; assay type: organism-based; parameters: dose 8 mg/kg, route oral; conditions: in vivo, 672 h
SMILES,inhibition [1],inhibition [2] [%],inhibition [3] [%],inhibition [4] [%],Activity [5],inhibition [6],Activity [7]
CC/C(=C(\c1ccccc1)c1ccc(OCCN(C)C)cc1)c1ccccc1,inactive,14,25,,,,
CC/C(=C(\c1ccc(O)cc1)c1ccc(OCCNC)cc1)c1ccccc1 [ENDOXIFEN],,,78,12,Non-toxic,Dose-dependent effect,Non-toxic

# From ChEMBL document CHEMBL1156970, “Endoxifen is a new potent inhibitor of PKC: a potential therapeutic agent for bipolar disorder” (Bioorg Med Chem Lett, 2010)
